Reference: paper PMC6143625, “A high throughput screen for next-generation leads targeting malaria parasite transmission” (Nature Communications, 2018)
Read-outs that look alike come from different tables or passages of the source.

Assays:
[1] = tested on: P. falciparum stage V female gametocytes (female gamete formation); assay: P. falciparum dual gamete formation assay (Pf DGFA), female readout (Pfs25 expression), 48 h carry-over format; type: cell-based, Plasmodium falciparum NF54; details: Plasmodium falciparum; for inhibition at 2 µM: primary screen, single replicate
[2] = tested on: P. falciparum 3D7 asexual blood stages; assay: Whole-cell time extended asexual growth assay (pLDH); type: cell-based; details: Plasmodium falciparum; for inhibition at 2 µM: primary screen, read-out: %Inh Asex stages @2uM
Description: Asexual activity was assayed via Plasmodium lactate dehydrogenase activity (pLDH), a surrogate of asexual parasite growth. […] 2 µM artesunate and DMSO were used as the positive and negative controls, respectively. […] After plate mixing, NBT reduction was measured by absorbance at 650 nm using Envision (Perkin Elmer).

[3] = tested on: P. falciparum stage V male gametocytes (male gamete formation); assay: P. falciparum dual gamete formation assay (Pf DGFA), male readout (exflagellation), 48 h carry-over format; type: cell-based, Plasmodium falciparum NF54; details: Plasmodium falciparum, 24h preincubation/carry-over
[4] = tested on: P. falciparum female gamete formation; assay: Pf DGFA add-in format, female readout; type: cell-based; details: Plasmodium falciparum; 0h preincubation/add-in
Description: (§1) In profiling mode, the Pf DGFA was performed in 96-well plates[23] in wash-out and add-in formats to aid manual manipulation steps. In the wash-out format, gametocytes were incubated for 24 h with test compounds in round-bottomed 96 well plates and then culture medium replaced three times over 6 h, to remove as much of the compound as possible from the well. […] In add-in format, gametocytes were added directly to flat-bottomed 96-well plates containing test compounds, ookinete medium and anti-Pfs25.

HepG2 human cells = tested on: HepG2 human cells; set-up: method as in http://dx.doi.org/10.6019/CHEMBL3507680; details: ref http://dx.doi.org/10.6019/CHEMBL3507680; cited from earlier work
[5] = tested on: P. falciparum male gamete formation; assay: Pf DGFA add-in format, male readout; type: cell-based, Plasmodium falciparum; details: Plasmodium falciparum; 0h preincubation/add-in
Description: as §1

[6] = tested on: P. berghei-ANKA-GFP-Luc-SMCON sporozoites in HepG2-A16-CD81EGFP cells; assay: P. berghei liver stage assay (luciferase sporozoite HepG2 invasion); type: cell-based; details: Plasmodium berghei
Description: Compound inhibition of P. berghei sporozoite liver infection was assessed in a high-throughput luciferase assay. 1536-well plates (789173-F, Greiner Bio-One) were pre-seeded with 5 µl HepG2-A16-CD81^EGFP cells grown in DMEM (11965–092, Invitrogen) containing 10% FBS (35–011-CV, Corning) and 1× Pen Strep Glutamine (10378–016, Invitrogen). Then, 50 nl of compound in DMSO was dispensed in 12-point serial dilution dose-response format (50 µM to 2.82 × 10^−4 µM), and incubated overnight.A. stephensi mosquitoes infected with P. berghei-ANKA-GFP-Luc-SMCON (Pb-Luc)[41] sporozoites bearing the antifolate-resistance-conferring Toxoplasma gondii dihydrofolate reductase-thymidylate synthase selectable marker, pyR2. After dissection, ~1000 sporozoites in 5 µl screening media (DMEM, 11965–092, Invitrogen; 5% FBS, 35–011-CV, Corning; 5x Pen Strep Glutamine, 10378–016, Invitrogen) were added per well and incubated for 48 h (37 °C, 5% CO2). Bioluminescence was measured using an EnVision microplate reader (Perkin Elmer), following the addition of 2 µl per well of Bright-Glo™ (Promega). Compound toxicity against HepG2 cells was determined in parallel by measuring cellular ATP levels reported by luciferase activity. Methods were similar to the P. berghei liver stage assay, except for the addition of CellTiter-Glo® (Promega) as a detection reagent. DMSO (0.5%) was used as a negative control in both assays, with Atovaquone (5 µM) and Puromycin (10 µM) acting as positive controls in the P. berghei and toxicity assays, respectively.

[7] = 24h preincubation/carry-over, read-out: Pf DGFA Female IC50
[8] = 48 h, dose response retest of primary hits, 48 h incubation, read-out: Female IC50
[9] = 48h preincubation/carry-over, read-out: Pf DGFA Female IC50
[10] = 72h incubation, read-out: Pf Asexual IC50
[11] = dose response retest, 72 h, read-out: IC50 (µM) Asex stages
[12] = 48h incubation, read-out: Pb Liver invasion assay IC50

| SMILES | IC50 [1, 7] [µM] | IC50 [1, 8] [µM] | IC50 [1, 9] [µM] | inhibition at 2 µM ([1]; 48 h incubation) [%] | IC50 [2, 10] [µM] | IC50 [3] [µM] | IC50 [4] [µM] | %Inh HepG2 @10uM (HepG2 human cells) [%] | IC50 [5] [µM] | IC50 [2, 11] [µM] | inhibition at 2 µM ([2]; 72 h) [%] | IC50 [6, 12] [µM] | IC50 ([2]; profiling / reconfirmation, read-out: Pf asexual IC50) [µM] | IC50 ([6]; read-out: Pb liver IC50) [µM] |
| --- | --- | --- | --- | --- | --- | --- | --- | --- | --- | --- | --- | --- | --- | --- |
| CC(c1ccco1)N(C(=O)CNc1ccc(C#N)cc1)C1CC1 (stereo not shown) [DDD01062645] | > 12.5 | > 10 | > 12.5 | < 30 | > 20 | > 12.5 | 5.05 | 4.38 | 0.44 |  |  |  |  |  |
| Cc1ccc(CN(c2cc(C)nc3nc(C(F)(F)F)nn23)C2CC2)cc1 [DDD01063654] | > 12.5 |  | > 12.5 |  | 0.33 | > 12.5 | > 10 | 0.83 | > 10 | 0.324 | 73.2 | 15.3 |  |  |
| Cc1cc(C)c(CNCC(O)c2ccc(F)c(F)c2)c(C)c1.Cl (stereo not shown) [DDD01065539] | > 12.5 |  | > 12.5 |  | 0.17 | > 12.5 | > 10 | -11.40 | > 10 | 0.396 | 91.4 | 17.2 |  |  |
| CC(NCC1CCN(CCO)CC1)c1ccc(OC(F)(F)F)cc1 (stereo not shown) [DDD01073716] | > 12.5 | > 10 | 4.12 | < 30 | 10.8 | 11 | > 10 | -2.01 | > 10 |  |  | 15.5 |  |  |
| CN(Cc1cccc(F)c1)C(=O)CS(=O)(=O)Cc1c(Cl)cccc1Cl [DDD01077188] | > 12.5 |  | > 12.5 |  | 0.63 | > 12.5 | > 10 | 5.76 | > 10 | 0.764 | 74.2 | 23.1 |  |  |
| CN1CCC(NCC(O)c2cccc(OCc3ccccc3)c2)CC1 (stereo not shown) [DDD01079164] | > 12.5 | > 10 | 3.12 | < 30 | 7.53 | 6.04 | > 10 | 4.18 | > 10 |  |  | 16.5 |  |  |
| CNc1cc(C)nc(NC2CCCN(C3Cc4ccccc4C3)C2)n1 (stereo not shown) [DDD01243506] | > 12.5 |  | > 12.5 |  |  | > 12.5 | > 10 | 28.56 | > 10 | 1.07 | 97.1 |  | 0.66 | 0.52 |
| OC1(CN2CCC(Oc3cccc(C(F)(F)F)c3)CC2)CCNC1 (stereo not shown) [DDD01245291] | > 25 | 5.78 | 4.13 | < 30 | 6.66 | 5.99 | > 10 | -7.31 | > 10 |  |  | 6.06 |  |  |
| CC(c1cccs1)N(C)Cc1cnc(-c2ccccn2)nc1 (stereo not shown) [DDD01246628] | > 25 | 5.32 | > 25 | 41.9 | 4.75 | > 25 | > 10 | 3.52 | > 10 |  |  | 13.3 |  |  |
| CC(C)CN1CCn2nc(CNc3ncnc4[nH]ccc34)cc2C1 [DDD01249504] | > 25 | > 10 | > 25 | < 30 | > 20 | 1.83 | > 10 | 7.26 | > 10 |  |  | > 50 |  |  |
| CCCn1nccc1C(=O)N1CCN(C2CCc3ccccc3C2)CC1 (stereo not shown) [DDD01251134] | > 12.5 |  | > 12.5 |  | 1.01 | > 12.5 | > 10 | -7.89 | > 10 | 0.969 | 58.4 | 20.7 |  |  |
